Drawing on US20090221599A1, “PHTHALAZINONE PYRAZOLE DERIVATIVES, THEIR MANUFACTURE AND USE AS PHARMACEUTICAL AGENTS” (priority 2006, published 2009), this text covers IC50 for 18 compounds.

One assay has as its system HCT 116 cells. The assay can be described thus: CellTiter-Glo assay in HCT 116 cells. The class given is cell-based. The settings on record: HCT 116 human colon carcinoma cells, 5 days, CellTiter-Glo cell viability. Here is the method: The CellTiter-Glo™ Luminescent Cell Viability Assay (Promega) is a homogeneous method of determining the number of viable cells in culture based on quantitation of the ATP present, which signals the presence of metabolically active cells.
HCT 116 cells (human colon carcinoma, ATCC-No. CC1-247) were cultivated in RPMI 1640 medium with GlutaMAX™ I (Invitrogen, Cat-No. 61870-010), 2.5% Fetal Calf Serum (FCS, Sigma Cat-No. F4135 (FBS)); 100 Units/ml penicillin/100 μg/ml streptomycin (=Pen/Strep from Invitrogen Cat. No. 15140). For the assay the cells were seeded in 384 well plates, 1000 cells per well, in the same medium. The next day the test compounds were added in various concentrations ranging from 30 μM to 0.0015 μM (10 concentrations, 1:3 diluted). After 5 days the CellTiter-Glo™ assay was done according to the instructions of the manufacturer (CellTiter-Glo™ Luminescent Cell Viability Assay, from Promega). In brief: the cell-plate was equilibrated to room temperature for approximately 30 minutes and than the CellTiter-Glo™ reagent was added. The contents were carefully mixed for 15 minutes to induce cell lysis. After 45 minutes the luminescent signal was measured in Victor 2, (scanning multiwell spectrophotometer, Wallac).
1st. day: • Medium: RPMI 1640 with GlutaMAX™ I (Invitrogen, Cat-No. 61870), 5% FCS (Sigma Cat.-No. F4135), Pen/Strep (Invitrogen, Cat No. 15140). • HCT116 (ATCC-No. CC1-247): 1000 cells in 60 μl per well of 384 well plate (Greiner 781098, μClear-plate white) • After seeding incubate plates 24 h at 37° C., 5% CO2 2nd. day: Induction (Treatment with compounds, 10 concentrations):
In order to achieve a final concentration of 30 μM as highest concentration 3.5 μl of 10 mM compound stock solution were added directly to 163 μl media. Then step e) of the dilution procedure described below, was followed.
In order to achieve the second highest to the lowest concentrations, a serial dilution with dilution steps of 1:3 was followed according to the procedure (a-d) as described here below: • a) for the second highest concentration add 10 μl of 10 mM stock solution of compound to 20 μl dimethylsulfoxide (DMSO) • b) dilute 8× 1:3 (always 10 μl to 20 μl DMSO) in this DMSO dilution row (results in 9 wells with concentrations from 3333.3 μM to 0.51 μM) • c) dilute each concentration 1:47.6 (3.5 μl compound dilution to 163 μl media) • d) add 10 μl of every concentration to 60 μl media in the cell plate resulting in final concentration of DMSO: 0.3% in every well and resulting in 10 final concentration of compounds ranging from 30 μM to 0.0015 μM. • Each compound is tested in triplicate. • Incubate 120 h (5 days) at 37° C., 5% CO2
• Add 30 μl CellTiter-Glo™ Reagent (prepared from CellTiter-Glo™ Buffer and CellTiter-Glo™ Substrate (lyophilized) purchased from Promega) per well, • shake 15 minutes at room temperature • incubate further 45 minutes at room temperature without shaking
• Victor 2 scanning multiwell spectrophotometer (Wallac), Luminescence mode (0.5 sec/read, 477 nm) • Determine IC50 using a non-linear curve fit (XLfit software (ID Business Solution Ltd., Guilford, Surrey, UK))
In general terms: Cellular ATP, detected with luciferase, serves as a proxy for viable cell number.

In another assay the target is T1, mutant Aurora A kinase (Homo sapiens, UniProt O14965).
T1 sequence (O14965 1-403): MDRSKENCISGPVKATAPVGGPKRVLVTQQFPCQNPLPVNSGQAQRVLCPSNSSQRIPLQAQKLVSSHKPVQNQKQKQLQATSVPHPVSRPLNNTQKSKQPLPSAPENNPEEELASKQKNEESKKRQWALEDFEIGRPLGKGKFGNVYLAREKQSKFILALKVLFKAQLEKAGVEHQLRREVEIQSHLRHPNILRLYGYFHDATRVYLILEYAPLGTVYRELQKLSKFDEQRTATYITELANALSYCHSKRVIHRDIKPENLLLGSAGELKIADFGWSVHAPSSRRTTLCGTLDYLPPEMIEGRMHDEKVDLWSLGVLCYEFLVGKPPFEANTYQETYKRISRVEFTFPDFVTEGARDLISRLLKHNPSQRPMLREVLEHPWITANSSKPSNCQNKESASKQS
The assay can be described thus: IC50 determination for inhibitors of Aurora A (ELISA, GST-Histone H3 substrate). The class given is biochemical. The settings on record: 30 μM ATP, 40 minutes, read-out: IC50 Aurora A kinase inhibition. Here is the method:
Aurora A is a serine threonine kinase involved in spindle assembly and chromosome segregation.
The assay is a typically ELISA-type assay where substrate (GST-Histone H3) is coupled to the assay-plate and is phosphorylated by the kinase. Phosphorylation is detected by a mouse anti-Phosphopeptid mAb and an HRP-labeled anti-mouse pAb. The assay is validated for IC50-determination.
Kinase activities were measured by Enzyme-Linked Immunosorbent Assay (ELISA): Maxisorp 384-well plates (Nunc) were coated with recombinant fusion protein comprising residues 1-15 of Histone H3 fused to the N-terminus of Glutathione-S-Transferase. Plates were then blocked with a solution of 1 mg/mL I-block (Tropix cat# T2015—highly purified form of casein) in phosphate-buffered saline. Kinase reactions were carried out in the wells of the ELISA plate by combining an appropriate amount of mutant Aurora A kinase with test compound and 30 μM ATP. The reaction buffer was 10× Kinase Buffer (Cell Signaling cat #9802) supplemented with 1 μg/mL I-block. Reactions were stopped after 40 minutes by addition of 25 mM EDTA. After washing, substrate phosphorylation was detected by addition of anti-phospho-Histone H3 (Ser 10) 6G3 mAb (Cell Signaling cat #9706) and sheep anti-mouse pAb-HRP (Amersham cat# NA931V), followed by calorimetric development with TMB (3,3′,5,5′-tetramethylbenzidine from Kirkegaard & Perry Laboratories). After readout of the absorbance, IC50 values were calculated using a non-linear curve fit (XLfit software (ID Business Solution Ltd., Guilford, Surrey, UK)).

Each structure is given as a SMILES string.

Compound `Cc1cc(Nc2nn(C(C)C)c(=O)c3cc(CS(C)(=O)=O)ccc23)n[nH]1` [Example F-2, 2-Isopropyl-7-methanesulfonylmethyl-4-(5-methyl-1H-pyrazol-3-ylamino)-2H-phthalazin-1-one] yielded an IC50 in the assay with HCT 116 cells (Homo sapiens, HCT-116, 120 h) of 500 to 2500 nM.

Take `COCC(=O)N(C)c1ccc2c(Nc3cc(C)[nH]n3)nn(C(C)C)c(=O)c2c1` [Example G-1, N-[3-Isopropyl-1-(5-methyl-1H-pyrazol-3-ylamino)-4-oxo-3,4-dihydro-phthalazin-6-yl]-2-methoxy-N-methyl-acetamide]: in the assay with HCT 116 cells (Homo sapiens, HCT-116, 120 h), the IC50 was 50 to 500 nM.

With `Cc1cc(Nc2nn(C(C)C)c(=O)c3cc(OCCN(C)C)ccc23)n[nH]1` [Example A-5, 7-(2-Dimethylamino-ethoxy)-2-isopropyl-4-(5-methyl-1H-pyrazol-3-ylamino)-2H-phthalazin-1-one], the IC50 at mutant Aurora A kinase was determined as 22 nM.

The compound `Cc1cc(Nc2nn(C(C)C)c(=O)c3cc(N(C)CCN(C)C)ccc23)n[nH]1` [Example B-3, 7-[(2-Dimethylamino-ethyl)-methyl-amino]-2-isopropyl-4-(5-methyl-1H-pyrazol-3-ylamino)-2H-phthalazin-1-one] registered an IC50 with HCT 116 cells (Homo sapiens, HCT-116, 120 h) of 50 to 500 nM.

As for `Cc1cc(Nc2nn(C(C)C)c(=O)c3cc(OCCCS(=O)(=O)N(C)C)ccc23)n[nH]1` [Example A-3, 3-[3-Isopropyl-1-(5-methyl-1H-pyrazol-3-ylamino)-4-oxo-3,4-dihydro-phthalazin-6-yloxy]-propane-1-sulfonic acid dimethylamide], in the assay on HCT 116 cells (Homo sapiens, HCT-116, 120 h), the IC50 fell in the range of 50 to 500 nM.

Turning to `CSCCN(C)c1ccc2c(Nc3cc(C)[nH]n3)nn(C(C)C)c(=O)c2c1` [Example B-1, 2-Isopropyl-7-[methyl-(2-methylsulfanyl-ethyl)-amino]-4-(5-methyl-1H-pyrazol-3-ylamino)-2H-phtalazin-1-one], the IC50 with HCT 116 cells worked out at 92 nM.

On to `Cc1cc(Nc2nn(C(C)C)c(=O)c3cc(COCc4cccnc4)ccc23)n[nH]1` [Example E-2, 2-Isopropyl-4-(5-methyl-1H-pyrazol-3-ylamino)-7-(pyridin-3-ylmethoxymethyl)-2H-phthalazin-1-one], for which the IC50 in the assay on HCT 116 cells (Homo sapiens, HCT-116, 120 h) is 50 to 500 nM.

With `Cc1cc(Nc2nn(C(C)C)c(=O)c3cc(OCCS(C)(=O)=O)ccc23)n[nH]1` [Example A-7, 2-Isopropyl-7-(2-methanesulfonyl-ethoxy)-4-(5-methyl-1H-pyrazol-3-ylamino)-2H-phthalazin-1-one], the IC50 with HCT 116 cells (Homo sapiens, HCT-116, 120 h) fell in the range of 50 to 500 nM.

As to `COCC(=O)N(C)c1ccc2c(Nc3cc(C)[nH]n3)nn(Cc3cc(F)cc(F)c3)c(=O)c2c1` [Example G-2, N-[3-(3,5-Difluoro-benzyl)-1-(5-methyl-1H-pyrazol-3-ylamino)-4-oxo-3,4-dihydro-phthalazin-6-yl]-2-methoxy-N-methyl-acetamide], the IC50 with HCT 116 cells (Homo sapiens, HCT-116, 120 h) was 500 to 2500 nM.

`CSCc1ccc2c(Nc3cc(C)[nH]n3)nn(C(C)C)c(=O)c2c1` [Example F-1, 2-Isopropyl-4-(5-methyl-1H-pyrazol-3-ylamino)-7-methylsulfanylmethyl-2H-phthalazin-1-one] showed an IC50 with HCT 116 cells (Homo sapiens, HCT-116, 120 h) of 50 to 500 nM.

`Cc1cc(Nc2nn(C(C)C)c(=O)c3cc(COCC4CC4)ccc23)n[nH]1` [Example E-1, 7-Cyclopropylmethoxymethyl-2-isopropyl-4-(5-methyl-1H-pyrazol-3-ylamino)-2H-phthalazin-1-one] showed an IC50 in the assay on HCT 116 cells (Homo sapiens, HCT-116, 120 h) of 50 to 500 nM.

For the compound `CSCCSc1ccc2c(Nc3cc(C)[nH]n3)nn(C(C)C)c(=O)c2c1` [Example C-1, 2-Isopropyl-4-(5-methyl-1H-pyrazol-3-ylamino)-7-(2-methylsulfanyl-ethylsulfanyl)-2H-phthalazin-1-one], in the assay with HCT 116 cells (Homo sapiens, HCT-116, 120 h), the IC50 is 296 nM.

On to `Cc1cc(Nc2nn(C(C)C)c(=O)c3cc(COCCN4CCOCC4)ccc23)[nH]n1` [Example E-3, 2-Isopropyl-4-(5-methyl-2H-pyrazol-3-ylamino)-7-(2-morpholin-4-yl-ethoxymethyl)-2H-phthalazin-1-one], for which the IC50 on mutant Aurora A kinase was 16 nM; in the assay on HCT 116 cells (Homo sapiens, HCT-116, 120 h), 500 to 2500 nM.

Regarding `Cc1cc(Nc2nn(C(C)C)c(=O)c3cc(S(=O)(=O)CCS(C)(=O)=O)ccc23)n[nH]1` [Example C-2, 2-Isopropyl-7-(2-methanesulfonyl-ethanesulfonyl)-4-(5-methyl-1H-pyrazol-3-ylamino)-2H-phthalazin-1-one], the IC50 on mutant Aurora A kinase is 10 nM; with HCT 116 cells (Homo sapiens, HCT-116, 120 h), 500 to 2500 nM.

`Cc1cc(Nc2nn(C(C)C)c(=O)c3cc(OCCCS(=O)(=O)N4CCOCC4)ccc23)n[nH]1` [Example A-4, 2-Isopropyl-4-(5-methyl-1H-pyrazol-3-ylamino)-7-[3-(morpholine-4-sulfonyl)-propoxy]-2H-phthalazin-1-one]: the IC50 on mutant Aurora A kinase amounted to 10 nM; with HCT 116 cells (Homo sapiens, HCT-116, 120 h) it was 791 nM.

Turning to `CSCCOc1ccc2c(Nc3cc(C)[nH]n3)nn(C(C)C)c(=O)c2c1` [Example A-1, 2-Isopropyl-4-(5-methyl-1H-pyrazol-3-ylamino)-7-(2-methylsulfanyl-ethoxy)-2H-phthalazin-1-one], the midpoint of inhibition in the assay on HCT 116 cells (Homo sapiens, HCT-116, 120 h), the IC50, lay at 216 nM.

In turn, `COCCOc1ccc2c(Nc3cc(C)[nH]n3)nn(C(C)C)c(=O)c2c1` [Example A-2, 2-Isopropyl-7-(2-methoxy-ethoxy)-4-(5-methyl-1H-pyrazol-3-ylamino)-2H-phthalazin-1-one] yielded an IC50 with HCT 116 cells (Homo sapiens, HCT-116, 120 h) of 50 to 500 nM.

In the assay on HCT 116 cells (Homo sapiens, HCT-116, 120 h), `COCCN(C)c1ccc2c(Nc3cc(C)[nH]n3)nn(C(C)C)c(=O)c2c1` [Example B-2, 2-Isopropyl-7-[(2-methoxy-ethyl)-methyl-amino]-4-(5-methyl-1H-pyrazol-3-ylamino)-2H-phthalazin-1-one] came in with an IC50 of 50 to 500 nM.

A word on the IC50: it is the concentration at which inhibition is half-maximal.
